From the NIST ThermoML archive (doi:10.1021/je100237h)

Conditions: Liquid; for viscosity: 101.33 kPa, Concentric cylinders viscometry; for mass density: Vibrating tube method

CC(C)COC(=O)CCCCC(=O)OCC(C)C [diisobutyl adipate]
Conditions	viscosity [mPa·s]
283.15 K	8.56
288.15 K	7.22
293.15 K	6.17
298.15 K	5.33
303.15 K	4.65
308.15 K	4.09
313.15 K	3.63
318.15 K	3.24
323.15 K	2.92
328.15 K	2.64
333.15 K	2.4
338.15 K	2.19
343.15 K	2.01
348.15 K	1.85
353.15 K	1.71
358.15 K	1.59
363.15 K	1.48
368.15 K	1.38
373.15 K	1.29

Conditions	mass density [kg/m3]
293.15 K, 100 kPa	951.7
293.15 K, 10000 kPa	958.4
293.15 K, 20000 kPa	964.7
293.15 K, 30000 kPa	970.6
293.15 K, 40000 kPa	976.1
293.15 K, 50000 kPa	981.4
293.15 K, 60000 kPa	986.4
293.15 K, 70000 kPa	991.2
293.15 K, 80000 kPa	995.9
293.15 K, 90000 kPa	1000.3
293.15 K, 100000 kPa	1004.7
293.15 K, 110000 kPa	1008.7
293.15 K, 120000 kPa	1012.7
293.15 K, 130000 kPa	1016.6
293.15 K, 140000 kPa	1020.3
303.15 K, 100 kPa	942.8
303.15 K, 10000 kPa	949.9
303.15 K, 20000 kPa	956.4
303.15 K, 30000 kPa	962.6
303.15 K, 40000 kPa	968.3
303.15 K, 50000 kPa	974
303.15 K, 60000 kPa	979.1
303.15 K, 70000 kPa	984.2
303.15 K, 80000 kPa	989
303.15 K, 90000 kPa	993.4
303.15 K, 100000 kPa	997.8
303.15 K, 110000 kPa	1002.1
303.15 K, 120000 kPa	1006.3
303.15 K, 130000 kPa	1010.3
303.15 K, 140000 kPa	1014
313.15 K, 100 kPa	934.2
313.15 K, 10000 kPa	941.6
313.15 K, 20000 kPa	948.5
313.15 K, 30000 kPa	954.9
313.15 K, 40000 kPa	960.9
313.15 K, 50000 kPa	966.6
313.15 K, 60000 kPa	972.1
313.15 K, 70000 kPa	977.2
313.15 K, 80000 kPa	982
313.15 K, 90000 kPa	986.7
313.15 K, 100000 kPa	991.2
313.15 K, 110000 kPa	995.6
313.15 K, 120000 kPa	999.9
313.15 K, 130000 kPa	1003.9
313.15 K, 140000 kPa	1007.9
323.15 K, 100 kPa	925.6
323.15 K, 10000 kPa	933.4
323.15 K, 20000 kPa	940.5
323.15 K, 30000 kPa	947.3
323.15 K, 40000 kPa	953.7
323.15 K, 50000 kPa	959.7
323.15 K, 60000 kPa	965.2
323.15 K, 70000 kPa	970.6
323.15 K, 80000 kPa	975.6
323.15 K, 90000 kPa	980.5
323.15 K, 100000 kPa	985.3
323.15 K, 110000 kPa	989.8
323.15 K, 120000 kPa	994.2
323.15 K, 130000 kPa	998.3
323.15 K, 140000 kPa	1003
333.15 K, 100 kPa	916.7
333.15 K, 10000 kPa	924.9
333.15 K, 20000 kPa	932.4
333.15 K, 30000 kPa	939.3
333.15 K, 40000 kPa	945.8
333.15 K, 50000 kPa	952
333.15 K, 60000 kPa	957.8
333.15 K, 70000 kPa	963.3
333.15 K, 80000 kPa	968.5
333.15 K, 90000 kPa	973.4
333.15 K, 100000 kPa	978.2
333.15 K, 110000 kPa	982.8
333.15 K, 120000 kPa	987.3
333.15 K, 130000 kPa	991.6
333.15 K, 140000 kPa	995.7
343.15 K, 100 kPa	908.1
343.15 K, 10000 kPa	916.3
343.15 K, 20000 kPa	924.3
343.15 K, 30000 kPa	931.5
343.15 K, 40000 kPa	938.3
343.15 K, 50000 kPa	944.7
343.15 K, 60000 kPa	950.8
343.15 K, 70000 kPa	956.3
343.15 K, 80000 kPa	961.8
343.15 K, 90000 kPa	967
343.15 K, 100000 kPa	971.8
343.15 K, 110000 kPa	976.5
343.15 K, 120000 kPa	981.1
343.15 K, 130000 kPa	985.5
343.15 K, 140000 kPa	989.7
353.15 K, 100 kPa	899.3
353.15 K, 10000 kPa	908
353.15 K, 20000 kPa	916.2
353.15 K, 30000 kPa	923.7
353.15 K, 40000 kPa	930.9
353.15 K, 50000 kPa	937.7
353.15 K, 60000 kPa	943.9
353.15 K, 70000 kPa	950
353.15 K, 80000 kPa	955.5
353.15 K, 90000 kPa	960.8
353.15 K, 100000 kPa	965.7
353.15 K, 110000 kPa	970.5
353.15 K, 120000 kPa	974.9
353.15 K, 130000 kPa	979.5
353.15 K, 140000 kPa	983.7
363.15 K, 100 kPa	890.2
363.15 K, 10000 kPa	899.9
363.15 K, 20000 kPa	908.7
363.15 K, 30000 kPa	916.4
363.15 K, 40000 kPa	923.7
363.15 K, 50000 kPa	930.4
363.15 K, 60000 kPa	936.9
363.15 K, 70000 kPa	943.2
363.15 K, 80000 kPa	948.9
363.15 K, 90000 kPa	954.1
363.15 K, 100000 kPa	959.4
363.15 K, 110000 kPa	964.4
363.15 K, 120000 kPa	969
363.15 K, 130000 kPa	973.7
363.15 K, 140000 kPa	978.1
373.15 K, 100 kPa	882.3
373.15 K, 10000 kPa	891.5
373.15 K, 20000 kPa	900.5
373.15 K, 30000 kPa	908.6
373.15 K, 40000 kPa	916.5
373.15 K, 50000 kPa	923.3
373.15 K, 60000 kPa	930.1
373.15 K, 70000 kPa	936.4
373.15 K, 80000 kPa	942.2
373.15 K, 90000 kPa	947.8
373.15 K, 100000 kPa	953.2
373.15 K, 110000 kPa	958.2
373.15 K, 120000 kPa	963.2
373.15 K, 130000 kPa	967.8
373.15 K, 140000 kPa	972.5
383.15 K, 100 kPa	873.2
383.15 K, 10000 kPa	883.6
383.15 K, 20000 kPa	893.1
383.15 K, 30000 kPa	901.7
383.15 K, 40000 kPa	909.6
383.15 K, 50000 kPa	916.6
383.15 K, 60000 kPa	923.5
383.15 K, 70000 kPa	929.4
383.15 K, 80000 kPa	935.7
383.15 K, 90000 kPa	941.2
383.15 K, 100000 kPa	946.7
383.15 K, 110000 kPa	951.8
383.15 K, 120000 kPa	957
383.15 K, 130000 kPa	961.5
383.15 K, 140000 kPa	966.1
393.15 K, 100 kPa	864.7
393.15 K, 10000 kPa	875.3
393.15 K, 20000 kPa	885.1
393.15 K, 30000 kPa	893.9
393.15 K, 40000 kPa	902.1
393.15 K, 50000 kPa	909.5
393.15 K, 60000 kPa	916.6
393.15 K, 70000 kPa	923.2
393.15 K, 80000 kPa	929.5
393.15 K, 90000 kPa	935.3
393.15 K, 100000 kPa	941.1
393.15 K, 110000 kPa	946.2
393.15 K, 120000 kPa	951.4
393.15 K, 130000 kPa	956.3
393.15 K, 140000 kPa	960.9
403.15 K, 100 kPa	856.8
403.15 K, 10000 kPa	867.3
403.15 K, 20000 kPa	877.3
403.15 K, 30000 kPa	886.5
403.15 K, 40000 kPa	894.8
403.15 K, 50000 kPa	902.7
403.15 K, 60000 kPa	909.9
403.15 K, 70000 kPa	916.6
403.15 K, 80000 kPa	923.3
403.15 K, 90000 kPa	929.4
403.15 K, 100000 kPa	935
403.15 K, 110000 kPa	940.3
403.15 K, 120000 kPa	945.5
403.15 K, 130000 kPa	950.6
403.15 K, 140000 kPa	955.4
